{"source": "patent EP0618796B1", "about": "(priority 1991, dated 1993)"}
{"test_system": "not given", "assay": "not given", "conditions": "administered individually, without analgesic; cited from earlier work"}
{"smiles": "CC(C)(C)c1ccc(CN2CCN(C(c3ccccc3)c3ccc(Cl)cc3)CC2)cc1", "note": "(stereo not shown) [Buclizine, buclizine]", "effectiveness against migraine": "ineffective"}
{"test_system": "Rat Mesentery Mast Cells", "assay": "not given", "conditions": "ED20 = effective dose causing 20% secretion; antihistamines which cause mast cell degranulation; cited from earlier work"}
{"smiles": "CN(C)CCC(c1ccc(Cl)cc1)c1ccccn1", "note": "(stereo not shown) [Clorphenyramine]", "ED20 for Histamine Release": "10^-3 M"}
{"smiles": "CN1CCN(C(c2ccccc2)c2ccccc2)CC1", "note": "[Cyclizine]", "ED20 for Histamine Release": "0.0005 M"}
{"smiles": "CN(C)CCOC(c1ccccc1)c1ccccc1", "note": "[Diphenhydramine]", "ED20 for Histamine Release": "10^-3 M"}
{"smiles": "CC(CN1c2ccccc2Sc2ccccc21)N(C)C", "note": "(stereo not shown) [Promethazine]", "ED20 for Histamine Release": "10^-4 M"}
{"test_system": "not given", "assay": "not given", "conditions": "intramuscular administration during severe migraine; hydroxyzine 50 mg; compared with placebo; cited from earlier work"}
{"smiles": "OCCOCCN1CCN(C(c2ccccc2)c2ccc(Cl)cc2)CC1", "note": "(stereo not shown) [Hydroxyzine]", "effectiveness in the treatment of pain associated with classic migraine": "no more effective than a placebo"}
{"smiles": "Oc1ccc2c3c1O[C@H]1[C@@H](O)CC[C@@]4(O)[C@@H](C2)N(CC2CCC2)CC[C@]314", "note": "[nalbuphine]", "effectiveness in the treatment of pain associated with classic migraine": "no more effective than a placebo"}
{"test_system": "RAT MAST CELL", "assay": "Inhibition of rat mast cell degranulation in vitro (histamine release)", "type": "cell-based, rats", "conditions": "ID20 = inhibitory dose causing 20% inhibition, mast cells stimulated in vitro", "from_the_text": "First, mast cells from rats (peritoneal cavity) or humans (chronic peritoneal dialysis fluid) are purified; otherwise, rat basophilic leukemia (RBL) cells are kept in culture. Any of these mast cells are then exposed to various concentrations of inhibitory compounds to allow binding of the inhibitor to the receptor sites before testing their efficacy with respect to inhibition of mast cell degranulation. They are then used as such or washed free of unbound drug before exposure to stimuli known to induce degranulation. Compounds which are inhibitory prevent the stimulus from causing degranulation by binding to specific receptors or inactivating a crucial step in the degranulation process.\nThe mast cell degranulation blocking agent is administered in a pharmaceutically effective amount. The dosage range for pharmaceutical effectiveness can be determined by reference to standard laboratory tests for inhibition of mast cell degranulation and by the dosages used for such agents in other conditions. The pharmaceutically effective dose of the mast cell degranulation blocking agent can be approximated by its ID20, which is defined as the dose necessary to cause 20% inhibition in mast cells when applied to mast cells stimulated in vitro. The ID20 of selected inhibitors of the anti-histamine category is as follows: Table 2", "units": {"IC20": "µM"}}
{"smiles": "CN1CCC(=C2c3ccccc3CCc3cccnc32)CC1", "note": "[Azatadine]", "IC20": 0.1}
{"smiles": "CN1CCC(=C2c3ccccc3C=Cc3ccccc32)CC1", "note": "[Cyproheptadine]", "IC20": 5}
{"smiles": "OCCOCCN1CCN(C(c2ccccc2)c2ccc(Cl)cc2)CC1", "note": "(stereo not shown) [Hydroxyzine]", "IC20": 50}
{"smiles": "CN1CCC(=C2c3ccccc3CC(=O)c3sccc32)CC1", "note": "[Ketotifen]", "IC20": 10}
{"smiles": "O=c1[nH]c2ccccc2n1CCCN1CCN(C(c2ccccc2)c2ccccc2)CC1", "note": "[Oxatomide]", "IC20": 0.1}
{"smiles": "CC(C)(C)c1ccc(C(O)CCCN2CCC(C(O)(c3ccccc3)c3ccccc3)CC2)cc1", "note": "(stereo not shown) [Terfenadine]", "IC20": 5}
